{"source": "patent US20250101436A1", "about": "“APTAMERS AND SMALL MOLECULE LIGANDS” (MeiraGTx UK II Limited, priority 2021, published 2025)", "key": {"[1]": {"test_system": "12C6-1 riboswitch", "assay": "Firefly luciferase assay, Luci-12C6-1 riboswitch construct in transfected HEK 293 cells", "type": "cell-based, human", "conditions": "Luci-12C6-1, HEK 293, 50 uM Comp. 004", "from_the_text": "Riboswitch construct: Aptamers were synthesized by Integrated DNA Technologies, Inc. The synthesized aptamer sequence, here referred to as aptamer sequence 12C6-1, contains a putative TPP aptamer sequence (AP008955.1/944373-944459; CP030117.1/954080-954166; CP023474.1/977011-977097) with C at 5′ end and a complementary G at 3′ end flanking the putative TPP aptamer sequence: […] […] (SEQ ID NO: 1). Golden Gate cloning strategy (New England Biolabs, NEB) was used to clone the synthesized aptamer sequences into an intron-exon-intron cassette to replace the guanine aptamer in the G17 riboswitch cassette (see SEQ ID NO: 15 recited in WO 2016/126747, which is incorporated herein in its entirety) to generate riboswitch construct Luci-12C6-1."}, "[2]": {"test_system": "Alishewanella tabrizica thiC aptamer in TPPz riboswitch", "assay": "Firefly luciferase assay, TPPz riboswitch construct in HEK 293 cells", "type": "cell-based, human", "conditions": "HEK 293, 50 μM Comp. 004", "procedure": "(§1) First, the E. coli thiM TPP aptamer, the aptamer that was used in Weeks' work in generating the Comp. 004, was tested in TPPm riboswitch construct (SEQ ID No. 87 as described in 62/994,135) for its response to Comp. 004 in inducing gene expression. To evaluate whether this novel TPP aptamer binder could bind a different TPP aptamer, TPP aptamer from Alishewanella tabrizica thiC gene (Microbiol Res. 2017 January; 195:71-80) was tested in TPPz riboswitch construct (SEQ ID No. 86 as described in 62/994,135)."}, "[3]": {"test_system": "E. coli thiM TPP aptamer in TPPm riboswitch", "assay": "Firefly luciferase assay, TPPm riboswitch construct in HEK 293 cells", "type": "cell-based, human", "conditions": "HEK 293, 50 μM Comp. 004", "procedure": "as §1"}, "[4]": {"test_system": "N4-1C11 riboswitch", "assay": "Firefly luciferase assay, N4-1C11 riboswitch in HEK 293 cells", "type": "cell-based, human", "conditions": "N4-1C11, 0.1 μM Comp. 004", "method": "(§4) Transfection: 3.5×10^4 human embryonic kidney (HEK) 293 cells were plated in a 96-well flat bottom plate the day before transfection. Plasmid DNA (500 ng) was added to a tube or a 96-well U-bottom plate. Separately, TransIT-293 reagent (Mirus; 1.4 L) was added to 50 μL Optimum I media (Life Technologies) and allowed to sit for 5 minutes at room temperature (RT). Then, 50 μL of this diluted transfection reagent was added to the DNA, mixed, and incubated at RT for 20 min. Finally, 7 μL of this solution was added to a well of cells in the 96-well plate. Four hours after transfection, medium containing transfection solution was replaced by medium with either TPP or fursultiamine as aptamer ligands.\n(§5) Firefly luciferase assay of cultured cells: Twenty-four hours after media change, plates were removed from the incubator, and equilibrated to RT for several minutes on a lab bench, then aspirated. […] Following a 5 min incubation at RT, luminescence was measured using a Tecan machine with 500 ms read time. The luciferase activity was expressed as mean arbitrary light units (ALU)±S.D., and fold induction was calculated as the quotient of the luciferase activity obtained from cells with TPP or analog compound treatment divided by the luciferase activity obtained from cells without TPP or analog compound treatment."}, "[5]": {"test_system": "N5-12E5 riboswitch", "assay": "Firefly luciferase assay, N5-12E5 riboswitch in HEK 293 cells", "type": "cell-based, human", "conditions": "N5-12E5, 0.1 μM Comp. 004", "method": "as §4, §5"}, "[6]": {"test_system": "mEpo-12G6 (N5-12G6 riboswitch in mEpo gene)", "assay": "ELISA for mouse erythropoietin, construct mEpo-12G6 in AML12 cells", "type": "cell-based", "conditions": "mEpo-12G6, 1.85 μM Comp. 004", "from_the_text": "(§2) Riboswitch constructs: The alternative splicing riboswitch cassette containing aptamers N5-12G6 or N4-1C11 was inserted between nucleotide position 307 and 308 in the mouse erythropoietin cDNA sequence, generating constructs mEpo-12G6 and mEpo-1C11. Expression of the erythropoietin gene was driven by CASI promoter. The intron-exon-intron cassette without aptamer sequence was inserted at the same position in the cDNA of mEpo gene to create construct mEpo-Con1, serving as a control for constitutive target gene expression. N5-12G6 riboswitch cassette was inserted between nucleotide position 424 and 425 in the cDNA of human growth hormone (hGH) gene driven under CMV promoter.\n(§3) Enzyme-linked immunosorbent assay (ELISA) for mouse erythropoietin (mEpo): AML-12 cells or C2C12 cells were transfected as described in Example 1 with TransIT-X2 transfection reagent (Mirus Bio). Four hours after transfection, the transfected cells were treated with or without Comp. 004 at the indicated doses. The supernatants from the transfected cells were collected 24 hours after compound treatment and were subjected to ELISA for the detection of mEpo in the supernatant following the manufacturer's instruction (R&D)."}, "[7]": {"test_system": "mEpo-1C11 (N4-1C11 riboswitch in mEpo gene)", "assay": "ELISA for mouse erythropoietin, construct mEpo-1C11 in AML12 cells", "type": "cell-based", "conditions": "mEpo-1C11, 1.85 μM Comp. 004", "from_the_text": "as §2, §3"}, "[8]": {"test_system": "riboswitch regulatable mEpo constructs", "assay": "ELISA for mouse erythropoietin, riboswitch regulatable mEpo constructs in C2C12 cells", "type": "cell-based", "from_the_text": "as §2, §3"}, "[9]": {"test_system": "hGH-12G6 (N5-12G6 riboswitch in hGH gene)", "assay": "ELISA for human growth hormone, hGH-12G6 construct in HEK 293 cells", "type": "cell-based", "conditions": "HEK 293, hGH-12G6, 3.1 μM Comp. 004", "from_the_text": "as §2\nELISA for human growth hormone (hGH): HEK 293 cells were transfected as described in Example 1 with TransIT-293 transfection reagent (Mirus Bio). Four hours after transfection, the transfected cells were treated with or without Comp. 004 at the indicated doses. The supernatants from the transfected cells were collected 24 hours after Comp. 004 treatment and were subjected to ELISA for the detection of hGH in the supernatant following the manufacturer's instruction (R&D Systems)."}, "[10]": {"test_system": "AAV8.mEpo.12G6 mEpo expression", "assay": "Serum mouse Epo ELISA in mice injected in the muscle with AAV8.mEpo.12G6, oral Comp. 004", "type": "in vivo", "conditions": "1×10^11 GC AAV8 in the muscle, 30 mg/kg oral", "procedure": "For regulated mouse erythropoietin (mEpo) study, each female Balb/c mouse was injected in the quadricep muscle with 1.0×10^11, 5×10^10, 1×10^10, or 5×10^9 GC of AAV8 vectors containing riboswitch N5-12G6 regulated mEpo gene (AAV8.mEpo.12G6). 5 weeks post AAV injection, mice were treated with Comp. 004 formulated in 0.5% methylcellulose (MC): 0.25% Tween® 80 in deionized (DI) water via oral gavage. 16 hours post oral dosing, mice were subjected to submandibular blood collection. 10 fold diluted serum was used to measure mouse serum Epo using ELISA (Invitrogen)."}, "[11]": {"test_system": "hematocrit of anemic mice", "assay": "Hematocrit in mouse model of chronic kidney disease (CKD)-associated anemia with AAV8.mEpo.12G6", "type": "in vivo", "conditions": "for hematocrit: 300 mg/kg for 15 days and 10 doses", "procedure": "Chronic kidney disease-associated anima: male C57Bl/6 mice were injected intramuscularly with 2.5×10^10 vg or 1.0×10^10 vg of AAV8.mEpo.12G6 per mouse. One week post AAV injection, mice were treated daily with 50 mg/kg adenine (Sigma) via oral gavage for total 28 treatment in 5 weeks. Hematocrit was measured after Adenine treatment and before small molecule inducer treatment and monitored every 7 to 10 days post daily small molecule inducer oral dosing."}, "[12]": {"test_system": "hPTH-12G6 (N5-12G6 riboswitch in hPTH gene)", "assay": "ELISA for human PTH, hPTH-12G6 construct in HEK 293 cells", "type": "cell-based", "conditions": "HEK 293, hPTH-12G6", "from_the_text": "Riboswitch constructs: Alternative splicing riboswitch cassette containing aptamers N5-12G6 was inserted between nucleotide position 181 and 182 in human parathyroid hormone (hPTH) cDNA sequence, generating constructs hPTH-12G6. Expression of the erythropoietin gene was driven by CASI promoter.\nEnzyme-linked immunosorbent assay (ELISA) for human PTH: HEK 293 cells were transfected as described in Example 1 with TransIT-293 transfection reagent (Mirus Bio). Four hours after transfection, the transfected cells were treated with or without Compound 004 at the indicated doses. The supernatants from the transfected cells were collected 48 hours after compound treatment and were subjected to ELISA for the detection of human PTH in the supernatant following the manufacturer's instruction (Abcam)."}, "[13]": {"test_system": "AAV9.hPTH-12G6 hPTH expression", "assay": "hPTH production and serum calcium in mice injected intramuscularly with AAV9.hPTH-12G6, oral Comp. 004", "type": "in vivo", "conditions": "oral 30, 100 or 300 mg/kg for 3 days", "procedure": "AAV2.9 viral particle production: The AAV9 particles used for the transduction of mice comprised a viral genome derived from AAV2 (ITR) and a capsid derived from AAV9. The hPTH-12G6 was cloned into AAV plasmid backbone with CASI promoter, and the AAV plasmid was packaged into AAV9 capsid, generating vector AAV9.hPTH-12G6 (Signagen)\nAnimal study: C57BL/6 mice were injected intramuscularly with AAV9.hPTH-12G6 at 2.5×10^11 viral genome (VG) per mouse of the AAV9 viral particle into both quadriceps. Compound 004 was formulated in 0.5% methylcellulose (MC): 0.25% Tween® 80 in deionized (DI) water for oral administration. 30 days after AAV vector delivery, mice were treated orally via oral gavage with 0 mg/kg, 30 mg/kg, 100 mg/kg or 300 mg/kg Comp. 004 for 3 days."}, "[14]": {"test_system": "N5-12G6 riboswitch", "assay": "Firefly luciferase assay, N5-12G6 riboswitch in HEK293 cells", "conditions": "N5-12G6, 0.1 μM Comp. 004", "method": "as §4\nFirefly luciferase assay of cultured cells: Twenty-four hours after media change, plates were removed from the incubator, and equilibrated to RT for several minutes on a lab bench, then aspirated. Glo-lysis buffer (Promega, 100 μL, RT) was added, and the plates allowed to remain at RT for at least 5 minutes. Then, the well contents were mixed by 50 μL trituration, and 20 μL of each sample was mixed with 20 μL of bright-glo reagent (Promega) that had been diluted to 10% in glo-lysis buffer. 96 wells were spaced on an opaque white 384-well plate. Following a 5 min incubation at RT, luminescence was measured using a Tecan machine with 500 ms read time. The luciferase activity was expressed as mean arbitrary light units (ALU)±S.D., and fold induction was calculated as the quotient of the luciferase activity obtained from cells with TPP or analog compound treatment divided by the luciferase activity obtained from cells without TPP or analog compound treatment."}}}
{"compound": "c1cc(N2CCNCC2)c(NCc2ccc3nccnc3c2)cn1", "note": "[Comp. 004]", "values": [{"measurement": "fold increase in luciferase expression", "setting": "[1]", "value": 360, "unit": "fold"}, {"measurement": "fold increase in luciferase expression", "setting": "[2]", "value": 26, "unit": "fold"}, {"measurement": "increase in luciferase expression", "setting": "[3]", "value": 4.1}, {"measurement": "fold increase in luciferase expression", "setting": "[4]", "value": 16, "unit": "fold"}, {"measurement": "fold increase in luciferase expression", "setting": "[5]", "value": 8, "unit": "fold"}, {"measurement": "fold induction of mEpo expression", "setting": "[6]", "value": "about 148 fold"}, {"measurement": "fold induction of mEpo expression", "setting": "[7]", "value": "~71", "unit": "fold"}, {"measurement": "mEpo expression", "setting": "[8]", "value": "induced upon treatment of Comp. 004 in a dose dependent manner"}, {"measurement": "fold of the hGH expression from cells without compound treatment", "setting": "[9]", "value": "approximately 243 fold"}, {"measurement": "hGH expressed", "setting": "[9]", "value": 202, "unit": "ng/mL"}, {"measurement": "serum vector-expressed mEpo", "setting": "[10]", "value": "elevated"}, {"measurement": "hematocrit", "setting": "[11]; AAV 1×10^10 vg per mouse", "value": "restored to normal level"}, {"measurement": "hematocrit", "setting": "[11]; AAV 2.5×10^10 vg per mouse", "value": "exceeded the normal hematocrit level"}, {"measurement": "hematocrit of anemic mice", "setting": "[11]; after 20 oral doses, biggest increase in the 100 mg/kg dose group", "value": "increased"}, {"measurement": "hPTH expression", "setting": "[12]", "value": "dose dependent manner"}, {"measurement": "production of hPTH in mice", "setting": "[13]", "value": "induced dose-dependent production of hPTH"}, {"measurement": "serum calcium concentration", "setting": "[13]", "value": "increase in the serum calcium concentration"}, {"measurement": "fold increase in luciferase expression", "setting": "[14]", "value": 36, "unit": "fold"}]}
